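Compound exposure: 48 hours, 5 concentrations, 96-well plates. Abbreviation: GI50, concentration required for 50% inhibition of growth. TGI is the concentration that stops growth completely.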
Key:
Assay in all cases: DTP human tumour cell line panel, 48 h
[1] = system: 786-0 renal
[2] = system: A498 renal
[3] = system: A549 NSCLC
[4] = system: ACHN renal
[5] = system: BT-549 breast
[6] = system: CAKI-1 renal
[7] = system: CCRF-CEM leukemia
[8] = system: COLO 205 colon
[9] = system: DU-145 prostate
[10] = system: EKVX NSCLC
[11] = system: HCC-2998 colon
[12] = system: HCT-116 colon
[13] = system: HCT-15 colon
[14] = system: HL-60(TB) leukemia
[15] = system: HOP-62 NSCLC
[16] = system: HOP-92 NSCLC
[17] = system: HS 578T breast
[18] = system: HT29 colon
[19] = system: IGROV1 ovarian
[20] = system: K-562 leukemia
[21] = system: KM12 colon
[22] = system: LOX IMVI melanoma
[23] = system: M14 melanoma
[24] = system: MALME-3M melanoma
[25] = system: MCF7 breast
[26] = system: MDA-MB-231 breast
[27] = system: MDA-MB-435
[28] = system: MOLT-4 leukemia
[29] = system: NCI-H226 lung
[30] = system: NCI-H23 lung
[31] = system: NCI-H460 lung
[32] = system: NCI-H522 lung
[33] = system: NCI/ADR-RES ovarian
[34] = system: OVCAR-3 ovarian
[35] = system: OVCAR-4 ovarian
[36] = system: OVCAR-5 ovarian
[37] = system: OVCAR-8 ovarian
[38] = system: PC-3 prostate
[39] = system: RPMI-8226 leukemia
[40] = system: RXF 393 renal
[41] = system: SF-268 CNS
[42] = system: SF-295 CNS
[43] = system: SF-539 CNS
[44] = system: SK-MEL-2 melanoma
[45] = system: SK-MEL-28 melanoma
[46] = system: SK-MEL-5 melanoma
[47] = system: SK-OV-3 ovarian
[48] = system: SN12C renal
[49] = system: SNB-19 CNS
[50] = system: SNB-75 CNS
[51] = system: SR leukemia
[52] = system: SW-620 colon
[53] = system: T-47D breast
[54] = system: TK-10 renal
[55] = system: U251 CNS
[56] = system: UACC-257 melanoma
[57] = system: UACC-62 melanoma
[58] = system: UO-31 renal

## CCCCCCCC(=O)SCC/C=C/[C@@H]1CC(=O)NCc2cccc(n2)CN(Cc2ccc3ccccc3c2)CC(=O)N[C@@H](C(C)C)C(=O)O1
[1]
  GI50: > 100 µM
  TGI: > 100 µM
[2]
  GI50: 29.5 µM
  TGI: 88.3 µM
[3]
  GI50: > 100 µM
  TGI: > 100 µM
[4]
  GI50: 45.3 µM
  TGI: > 100 µM
[5]
  GI50: > 100 µM
  TGI: > 100 µM
[6]
  GI50: > 100 µM
  TGI: > 100 µM
[7]
  GI50: 37.9 µM
  TGI: > 100 µM
[8]
  GI50: 61.6 µM
  TGI: > 100 µM
[9]
  GI50: 94.1 µM
  TGI: > 100 µM
[10]
  GI50: > 100 µM
  TGI: > 100 µM
[11]
  GI50: > 100 µM
  TGI: > 100 µM
[12]
  GI50: 26.5 µM
  TGI: > 100 µM
[13]
  GI50: 89.3 µM
  TGI: > 100 µM
[14]
  GI50: 48 µM
  TGI: > 100 µM
[15]
  GI50: 39.2 µM
  TGI: > 100 µM
[16]
  GI50: 56.2 µM
  TGI: > 100 µM
[17]
  GI50: 46 µM
  TGI: > 100 µM
[18]
  GI50: 32.2 µM
  TGI: > 100 µM
[19]
  GI50: 44.4 µM
  TGI: > 100 µM
[20]
  GI50: 59.4 µM
  TGI: > 100 µM
[21]
  GI50: 42.3 µM
  TGI: > 100 µM
[22]
  GI50: 35.1 µM
  TGI: > 100 µM
[23]
  GI50: 44.3 µM
  TGI: > 100 µM
[24]
  GI50: 23.8 µM
  TGI: > 100 µM
[25]
  GI50: 40 µM
  TGI: > 100 µM
[26]
  GI50: 41.4 µM
  TGI: > 100 µM
[27]
  GI50: 39.7 µM
  TGI: > 100 µM
[28]
  GI50: 30.9 µM
  TGI: > 100 µM
[29]
  GI50: > 100 µM
  TGI: > 100 µM
[30]
  GI50: > 100 µM
  TGI: > 100 µM
[31]
  GI50: 43.9 µM
  TGI: > 100 µM
[32]
  GI50: 84.3 µM
  TGI: > 100 µM
[33]
  GI50: 46.4 µM
  TGI: > 100 µM
[34]
  GI50: 74.3 µM
  TGI: > 100 µM
[35]
  GI50: > 100 µM
  TGI: > 100 µM
[36]
  GI50: > 100 µM
  TGI: > 100 µM
[37]
  GI50: 87 µM
  TGI: > 100 µM
[38]
  GI50: 62.4 µM
  TGI: > 100 µM
[39]
  GI50: > 100 µM
  TGI: > 100 µM
[40]
  GI50: 42.2 µM
  TGI: > 100 µM
[41]
  GI50: 93.8 µM
  TGI: > 100 µM
[42]
  GI50: 41.4 µM
  TGI: > 100 µM
[43]
  GI50: > 100 µM
  TGI: > 100 µM
[44]
  GI50: 92.4 µM
  TGI: > 100 µM
[45]
  GI50: 47 µM
  TGI: > 100 µM
[46]
  GI50: 36.2 µM
  TGI: > 100 µM
[47]
  GI50: 40 µM
  TGI: > 100 µM
[48]
  GI50: > 100 µM
  TGI: > 100 µM
[49]
  GI50: > 100 µM
  TGI: > 100 µM
[50]
  GI50: 27.9 µM
  TGI: > 100 µM
[51]
  GI50: 22.9 µM
  TGI: > 100 µM
[52]
  GI50: > 100 µM
  TGI: > 100 µM
[53]
  GI50: > 100 µM
  TGI: > 100 µM
[54]
  GI50: 18.2 µM
  TGI: > 100 µM
[55]
  GI50: 98.2 µM
  TGI: > 100 µM
[56]
  GI50: 88.9 µM
  TGI: > 100 µM
[57]
  GI50: 51.6 µM
  TGI: > 100 µM
[58]
  GI50: 50 µM
  TGI: > 100 µM

Reference: PubChem BioAssay (NCI)
